4 compounds from patent US10085998B2, “Salts of potassium ATP channel openers and uses thereof” (Essentialis, Inc., priority 2006, dated 2018) can be followed below.

A short description of data set [1]: Moisture sorption analysis. The class given is physicochemical. The following applies: for Moisture sorption: hygroscopicity: relative humidity scan; for XRPD pattern following the moisture sorption/desorption analysis: after moisture sorption experiment; for Hysteresis upon desorption / hydrate formation: desorption scan.
Description: Moisture Sorption Analysis was performed with a Hiden IGAsorp Moisture Sorption Instrument. Samples were first dried at 0% relative humidity at 25° C. until an equilibrium weight was reached, or for a maximum of 4 hours. Samples were then subjected to an isothermal (25° C.) scan from 10-90% relative humidity in steps of 10%. The samples were allowed to equilibrate to an asymptotic weight at each point for a maximum of 4 hours. Following absorption, a desorption scan from 85% relative humidity (at 25° C.) was run in steps of −10%, again allowing a maximum of 4 hours for the samples to equilibrate. The resulting samples after desorption were dried at 80° C. for two hours and analyzed by XRPD.
Data set [2] in a line: Form conversion and degradation under thermal stress. As for the experimental part:
Studies were also conducted to evaluate the likelihood for conversion and degradation under thermal stress.

Data set [3] in a line: Slurry studies (inter-conversion of the solid form). Conditions: n-heptane; for Slurry study: conversion of solid form: dichloromethane (CH2Cl2) and toluene, 7 and 14 days.
Description: Slurry experiments were performed on each form to determine propensity for conversion and to see if a unique form could be generated.
Data set [4] is described as follows: Solubility measurements at pH 2, 7 and 12 in phosphate buffer. Conditions: solids after solubility analysis (choline salt: pH 2 and 7 only).
Description: (§1) Solubility concentrations were determined using area-percent calculations with HPLC calibration curves.
Data set [5] can be described thus: Solubility screen of diazoxide potassium salt in various solvents. The format is physicochemical. The text has this:
Solvents affording poor to fair solubility were used as antisolvents in binary/ternary crystallizations as well as slurry studies. Table 29 summarizes the results of the solubility screen.

Data set [6] in a line: Crystallization screening for polymorphic forms (single/binary solvent, fast/slow cooling, XRPD). The format is physicochemical.
For data set [7] the following is noted: pH 2.
Description: as §1
The nature of data set [8]: physchem. The following applies: thermodynamic from solid.
Description: as §1
A short description of data set [9]: Excipient compatibility study for diazoxide choline salt. The class given is physicochemical. The following applies: excipient 100 mg + diazoxide choline salt 100 mg.
For data set [10] the following is noted: all physiological relevant pH values from pH 2.0 to pH 8.5; deionized water, buffered aqueous solutions.
Description: UV spectroscopy was performed with a Perkin-Elmer Lambda 25 spectrometer. Samples were dissolved in acetonitrile, water and a buffer system having a pH between 5.6 and 10. Spectra were acquired between 340 and 190 nm, using a 1 cm path length with background correction.
[11] abbreviates: 60° C., closed, protected from light, 7 and 14 days.
The mark [12] stands for this setting: 25° C., listed as Potassium diazoxide salt.
The mark [13] stands for this setting: 25° C., listed as Choline diazoxide salt.

Where a name gives a salt, the structure may show the parent alone. Read-outs that look alike come from different tables or passages of the source.

Regarding `CC1=Nc2ccc(Cl)cc2S(=O)(=O)[N-]1.C[N+](C)(C)CCO` [Form B], in data set [1] (25° C.), the “Moisture sorption: hygroscopicity” value was “Hygroscopic - deliquesced” and the “Water absorbed at 60% RH” value came out at 7.4 wt %. Also, the “XRPD pattern following the moisture sorption/desorption analysis” value in data set [1] is reported as “remained in the Form B crystal structure”. In addition, the “Form conversion and degradation under thermal stress (XRPD, DSC)” value (“Form conversion and degradation” below) in data set [2] (setting [11]) is reported as “Stable after 14 days at”. The “Slurry study: conversion of solid form” value in [3] is recorded as “form conversion was not observed”. Further, in data set [4], the “XRPD pattern of the solids obtained after the solubility analysis” value (“XRPD pattern of the solids obtained” for short) is recorded as “Form B of the choline salt of diazoxide was still present”.

`CC1=NS(=O)(=O)c2cc(Cl)ccc2N1` [potassium salt of diazoxide]: the “Hysteresis upon desorption / hydrate formation” value in data set [1] (25° C.) is “hemihydrate from 0-30% RH and a monohydrate from 35-75% RH”; in data set [1] (setting [12]), “hemi/monohydrate”. The “Moisture sorption: hygroscopicity” value in data set [1] (25° C.) was “hygroscopic”; in data set [1] (setting [12]), “deliquescent -”. In [1] (25° C.), the “Water absorbed at 60% RH” value worked out at 5.4 wt %. Also, the “Water absorbed at 90% RH” value in data set [1] (25° C., 90% RH) is recorded as 38.3 wt %. The “XRPD pattern following the moisture sorption/desorption analysis” value in [1] is given as “changed to an alternate crystalline form”. In addition, the “Degradation by HPLC after thermal stress” value in data set [2] (60° C., 14 days, gradient area percent assay) is recorded as “did not show any significant degradation”. Moreover, the “Form conversion and degradation” value in data set [2] (setting [11]) is “showed unique peaks”. Also, the Conc. in data set [5] (solvent Acetone, 55 ° C., 1.6 mg in 4.00 mL) is 400 µg/mL; in data set [5] (solvent CH2Cl2, 55 ° C., 1.3 mg in 5.00 mL), 260 µg/mL; in [5] (solvent DMF, rt, 1.6 mg in 0.25 mL) it was above 6400 µg/mL; in [5] (solvent Dioxane, 55 ° C., 1.4 mg in 5.00 mL), 280 µg/mL; in data set [5] (solvent EtOAc, 55 ° C., 1.8 mg in 5.00 mL), 360 µg/mL; in data set [5] (solvent EtOH, 55 ° C., 2.2 mg in 0.75 mL), 2930 µg/mL. The Conc. turned out to be 240 µg/mL in data set [5] (solvent Heptane, 55 ° C., 1.2 mg in 5.00 mL); 2100 µg/mL in data set [5] (solvent IPA, 55 ° C., 2.1 mg in 1.00 mL); 340 µg/mL in [5] (solvent IPAc, 55 ° C., 1.7 mg in 5.00 mL); 300 µg/mL in data set [5] (solvent MEK, 55 ° C., 1.5 mg in 5.00 mL); 360 µg/mL in data set [5] (solvent MTBE, 55 ° C., 1.8 mg in 5.00 mL); 850 µg/mL in [5] (solvent MeCN, 55 ° C., 1.7 mg in 2.00 mL). In addition, the Conc. is 6000 µg/mL in data set [5] (solvent MeOH, 55 ° C., 1.5 mg in 0.25 mL); 360 µg/mL in data set [5] (solvent THF, 55 ° C., 1.8 mg in 5.00 mL); 280 µg/mL in data set [5] (solvent Toluene, 55 ° C., 1.4 mg in 5.00 mL); 300 µg/mL in data set [5] (solvent Water, 55 ° C., 1.5 mg in 5.00 mL); 300 µg/mL in data set [5] (solvent c-Hexane, 55 ° C., 1.5 mg in 5.00 mL). For the same compound, the Soluble result was “Yes” in data set [5] (solvent Acetone, 55 ° C., at 0.40 mg/mL); “No” in data set [5] (solvent CH2Cl2, 55 ° C., at […]); “Yes” in [5] (solvent DMF, rt, at >6.40 mg/mL); “No” in data set [5] (solvent Dioxane, 55 ° C., at […]); “No” in data set [5] (solvent EtOAc, 55 ° C., at […]); “Yes” in [5] (solvent EtOH, 55 ° C., at […]). Besides, the Soluble result in data set [5] (solvent Heptane, 55 ° C., at 0.24 mg/mL) is reported as “No”; in [5] (solvent IPA, 55 ° C., at […]), “Yes”; in [5] (solvent IPAc, 55 ° C., at […]), “No”; in data set [5] (solvent MEK, 55 ° C., at 0.30 mg/mL), “Partially”; in [5] (solvent MTBE, 55 ° C., at […]), “No”; in data set [5] (solvent MeCN, 55 ° C., at 0.85 mg/mL) it was “Yes”. For the same compound, the Soluble result in data set [5] (solvent MeOH, 55 ° C., at 6.00 mg/mL) is on record as “Yes”; in data set [5] (solvent THF, 55 ° C., at […]), “Partially”; in data set [5] (solvent Toluene, 55 ° C., at […]), “No”; in [5] (solvent Water, 55 ° C., at 0.30 mg/mL), “No”; in [5] (solvent c-Hexane, 55 ° C., at 0.30 mg/mL) it was “No”. Also, the Form entry in data set [6] (XRPD, single-solvent, fast-cooling, MeCN, 42.40 mg/mL, 80 ° C.) is recorded as “C +”. Besides, the Precipitate result is listed as “Yes” in data set [6] (binary-solvent, fast-cooling, McCN 0.6 mL (dissolved at 80° C.), anti-solvent CH2Cl2 1.0 mL); “Yes” in data set [6] (binary-solvent, fast-cooling, McCN 0.6 mL (dissolved at 80° C.), anti-solvent Dioxane 6.0 mL); “Yes” in data set [6] (binary-solvent, fast-cooling, McCN 0.6 mL (dissolved at 80° C.), anti-solvent EtOAc 6.0 mL); “Yes” in data set [6] (binary-solvent, fast-cooling, McCN 0.6 mL (dissolved at 80° C.), anti-solvent Heptane 2.0 mL); “Yes” in data set [6] (binary-solvent, fast-cooling, McCN 0.6 mL (dissolved at 80° C.), anti-solvent IPAc 3.0 mL); “Yes” in data set [6] (binary-solvent, fast-cooling, McCN 0.6 mL (dissolved at 80° C.), anti-solvent MTBE 1.0 mL). The Precipitate result in [6] (binary-solvent, fast-cooling, McCN 0.6 mL (dissolved at 80° C.), anti-solvent THF 6.0 mL) was “No/Evap”; in data set [6] (binary-solvent, fast-cooling, McCN 0.6 mL (dissolved at 80° C.), anti-solvent Toluene 1.0 mL), “Yes”; in data set [6] (binary-solvent, fast-cooling, McCN 0.6 mL (dissolved at 80° C.), anti-solvent c-Hexane 2.0 mL) it was “Yes”; in data set [6] (single-solvent, fast-cooling, Acetone, 10.35 mg/mL, 55 ° C.), “No/Evap”; in data set [6] (single-solvent, fast-cooling, EtOAc, 3.52 mg/mL, 75 ° C.), “Yes”; in data set [6] (single-solvent, fast-cooling, IPA, 75.67 mg/mL, 62 ° C.), “Yes”. Besides, the Precipitate entry in data set [6] (single-solvent, fast-cooling, MeCN, 42.40 mg/mL, 80 ° C.) is “Yes”; in [6] (single-solvent, fast-cooling, Water, 13.73 mg/mL, 95 ° C.), “Yes”; in data set [6] (single-solvent, fast-cooling, i-AmOH, 65.67 mg/mL, 73 ° C.) it was “Yes”; in data set [6] (single-solvent, fast-cooling, t-AmOH, 8.76 mg/mL, 95 ° C.) it was “Yes”; in data set [6] (single-solvent, slow-cooling, IPA, 71.67 mg/mL, 80 ° C.) it was “No/Evap”; in data set [6] (single-solvent, slow-cooling, MeCN, 45.60 mg/mL, 80 ° C.) it was “Yes”. In addition, in data set [6] (single-solvent, slow-cooling, i-AmOH, 68.67 mg/mL, 80 ° C.), the Precipitate entry is listed as “Yes”. Besides, the “XRPD pattern of the solids obtained” value in [7] is given as “changed back to the free form diazoxide material”. The solubility in [8] (pH 2, aqueous buffer) worked out at 9.9 mg/mL; in data set [8] (pH 7, aqueous buffer), 14.4 mg/mL; in [8] (pH 12, aqueous buffer), 43 mg/mL. Also, in data set [3], the “Slurry study: conversion of solid form” value was “no propensity of inter-conversion”. The “Degradation by HPLC after slurry study” value in data set [3] (dichloromethane, toluene, gradient area percent assay) is “did not show any significant degradation”.

Consider `CC1=Nc2ccc(Cl)cc2S(=O)(=O)N1` [Diazoxide Control], for which the “1 Month 40° C./75% RH % (w/w)” value in data set [9] (one-month storage 40° C./75% RH) is 99.0 % (w/w). Also, in data set [9] (one-month storage 50° C.), the “1 Month 50° C. % (w/w)” value is recorded as 99.4 % (w/w).

As to `CC1=Nc2ccc(Cl)cc2S(=O)(=O)[N-]1.C[N+](C)(C)CCO` [choline salt of diazoxide], in data set [1] (25° C.), the “Hysteresis upon desorption / hydrate formation” value is “does not form a stable hydrate” and the “Moisture sorption: hygroscopicity” value is on record as “hygroscopic”. In [1] (setting [13]), the “Hysteresis upon desorption / hydrate formation” value is recorded as “no hysteresis” and the “Moisture sorption: hygroscopicity” value is on record as “deliquescent -”. In data set [1] (25° C., 80% RH), the “Water absorbed at 80% RH” value is listed as “over 28 wt %”. Also, the “XRPD pattern following the moisture sorption/desorption analysis” value in data set [1] was “changed to an alternate crystalline form”. Further, in [2], the “Degradation by HPLC after thermal stress” value was “did not show any significant degradation”; the “Form conversion and degradation” value is “consistent with the starting material, as well as the presence of additional unique peaks”. Also, the “XRPD pattern of the solids obtained” value in [7] is given as “changed back to the free form diazoxide material”. Besides, in data set [10], the “Fate of the salt in aqueous medium (UV/Vis absorbance)” value was “hydrolyzes to the free base of diazoxide and choline hydroxide”. For the same compound, the “Slurry study: conversion of solid form” value in [3] (listed as Choline diazoxide salt) is given as “no propensity of inter-conversion”.
